Experimental data: PubChem BioAssay AID2060499 (Molecular Pharmacology Branch, DTP, NCI, 2025)

Tested on: 777334-354-R2-J4-PDC tumor spheroids with HUVEC/MSC, viability
Assay: Anticancer human tumor 777334-354-R2-J4-PDC patient-derived pancreatic adenocarcinoma cell line growth inhibition [GQUAD]
Conditions: for IC50: curve of first compound; for viability, T/C: stronger effect = lower value
How it was run: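 Viability of tumor cells grown as complex spheroids with endothelial and stromal cells, exposed to drug combinations. Top concentration at or near clinical Cmax (else 10 microM), diluted in half-log increments.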

[1] = second compound 0.0316 µM, first compound 0.0316 µM
[2] = second compound 0.0316 µM, first compound 0.1 µM
[3] = second compound 0.0316 µM, first compound 0.316 µM
[4] = second compound 0.0316 µM, first compound 1 µM
[5] = second compound 0.0316 µM, first compound 3.16 µM
[6] = second compound 0.0316 µM, first compound 10 µM
[7] = second compound 0.1 µM, first compound 0.0316 µM
[8] = second compound 0.1 µM, first compound 0.1 µM
[9] = second compound 0.1 µM, first compound 0.316 µM
[10] = second compound 0.1 µM, first compound 1 µM
[11] = second compound 0.1 µM, first compound 3.16 µM
[12] = second compound 0.1 µM, first compound 10 µM
[13] = second compound 0.316 µM, first compound 0.0316 µM
[14] = second compound 0.316 µM, first compound 0.1 µM
[15] = second compound 0.316 µM, first compound 0.316 µM
[16] = second compound 0.316 µM, first compound 1 µM
[17] = second compound 0.316 µM, first compound 3.16 µM
[18] = second compound 0.316 µM, first compound 10 µM
[19] = second compound 1 µM, first compound 0.0316 µM
[20] = second compound 1 µM, first compound 0.1 µM
[21] = second compound 1 µM, first compound 0.316 µM
[22] = second compound 1 µM, first compound 1 µM
[23] = second compound 1 µM, first compound 3.16 µM
[24] = second compound 1 µM, first compound 10 µM
[25] = second compound 3.16 µM, first compound 0.0316 µM
[26] = second compound 3.16 µM, first compound 0.1 µM
[27] = second compound 3.16 µM, first compound 0.316 µM
[28] = second compound 3.16 µM, first compound 1 µM
[29] = second compound 3.16 µM, first compound 3.16 µM
[30] = second compound 3.16 µM, first compound 10 µM
[31] = second compound 10 µM, first compound 0.0316 µM
[32] = second compound 10 µM, first compound 0.1 µM
[33] = second compound 10 µM, first compound 0.316 µM
[34] = second compound 10 µM, first compound 1 µM
[35] = second compound 10 µM, first compound 3.16 µM
[36] = second compound 10 µM, first compound 10 µM
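Note: spheroids exposed to compounds for 7 days before readout.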

`C#Cc1c(F)ccc2cc(O)cc(-c3ncc4c(N5CC6CCC(C5)N6)nc(OCC56CCCN5CC(F)C6)nc4c3F)c12` (centres undefined) + Cc1cnc(CNC(=O)c2c(=O)c3ccc(N4CCCN(C)CC4)nc3n3c2sc2ccccc23)cn1 was tested, and the IC50 (second compound 0.0316 µM) was < 0.0316 µM, the IC50 (second compound 0.1 µM) was < 0.0316 µM and the IC50 (second compound 0.316 µM) was < 0.0316 µM. For the same compound, the IC50 (second compound 1 µM) was < 0.0316 µM, the IC50 (second compound 3.16 µM) was < 0.0316 µM and the IC50 (second compound 10 µM) was < 0.0316 µM. It also gave a viability, T/C [1] of 49.7%, a viability, T/C [2] of 38.7% and a viability, T/C [3] of 31.4%. For the same compound, the viability, T/C [4] was 31.6%, the viability, T/C [5] was 27.1% and the viability, T/C [6] was 24.2%. The viability, T/C [7] was 45.1%, the viability, T/C [8] was 34.4% and the viability, T/C [9] was 30.9%. The viability, T/C [10] was 26.4%, the viability, T/C [11] was 23.5% and the viability, T/C [12] was 21.3%. The viability, T/C [13] was 39.6%, the viability, T/C [14] was 33.8% and the viability, T/C [15] was 28.8%. The viability, T/C [16] was 25.6%, the viability, T/C [17] was 22.6% and the viability, T/C [18] was 19.9%. The viability, T/C [19] was 36.2%, the viability, T/C [20] was 29.4% and the viability, T/C [21] was 31.1%. It also gave a viability, T/C [22] of 23.6%, a viability, T/C [23] of 21.9% and a viability, T/C [24] of 19.4%. It also gave a viability, T/C [25] of 28%, a viability, T/C [26] of 25.5% and a viability, T/C [27] of 22.8%. It also gave a viability, T/C [28] of 19.2%, a viability, T/C [29] of 17.5% and a viability, T/C [30] of 14.4%. For the same compound, the viability, T/C [31] was 22%, the viability, T/C [32] was 16.7% and the viability, T/C [33] was 15%. For the same compound, the viability, T/C [34] was 8.71%, the viability, T/C [35] was 8.87% and the viability, T/C [36] was 3.17%.

With `CC(=O)O[C@H]1C(=O)[C@@]2(C)[C@H]([C@H](OC(=O)c3ccccc3)[C@]3(O)C[C@H](OC(=O)[C@H](O)[C@@H](NC(=O)c4ccccc4)c4ccccc4)C(C)=C1C3(C)C)[C@]1(OC(C)=O)CO[C@@H]1C[C@@H]2O` + Cc1cnc(CNC(=O)c2c(=O)c3ccc(N4CCCN(C)CC4)nc3n3c2sc2ccccc23)cn1 the IC50 (second compound 0.0316 µM) was > 10 µM, the IC50 (second compound 0.1 µM) was > 10 µM and the IC50 (second compound 0.316 µM) was > 10 µM. For the same compound, the IC50 (second compound 1 µM) was > 10 µM, the IC50 (second compound 3.16 µM) was > 10 µM and the IC50 (second compound 10 µM) was > 10 µM. For the same compound, the viability, T/C [1] was 70%, the viability, T/C [2] was 49.9% and the viability, T/C [3] was 53.5%. For the same compound, the viability, T/C [4] was 43%, the viability, T/C [5] was 52.1% and the viability, T/C [6] was 52.8%. For the same compound, the viability, T/C [7] was 78.2%, the viability, T/C [8] was 54.7% and the viability, T/C [9] was 61.6%. It also gave a viability, T/C [10] of 45.4%, a viability, T/C [11] of 60.9% and a viability, T/C [12] of 59.7%. For the same compound, the viability, T/C [13] was 74.3%, the viability, T/C [14] was 61.9% and the viability, T/C [15] was 61.5%. The viability, T/C [16] was 68.1%, the viability, T/C [17] was 64.2% and the viability, T/C [18] was 62.1%. The viability, T/C [19] was 65%, the viability, T/C [20] was 63.5% and the viability, T/C [21] was 61%. For the same compound, the viability, T/C [22] was 67.3%, the viability, T/C [23] was 80.5% and the viability, T/C [24] was 70.1%. The viability, T/C [25] was 57%, the viability, T/C [26] was 66.5% and the viability, T/C [27] was 63.6%. The viability, T/C [28] was 58.4%, the viability, T/C [29] was 71.6% and the viability, T/C [30] was 74.1%. It also gave a viability, T/C [31] of 61.2%, a viability, T/C [32] of 50.1% and a viability, T/C [33] of 55.8%. The viability, T/C [34] was 58.4%, the viability, T/C [35] was 60.6% and the viability, T/C [36] was 52.3%.
